Where two headings read alike, the source gives them in different places.
What was measured:
[1] = for RFU change (Correlation analysis) / RFU change (Signal deviation with increasing [Carbohydrate]) / λmax change: 3 μM probe; for RFU change (Correlation analysis): probe-specific excitation λ, emission 545 nm; for RFU change (Signal deviation with increasing [Carbohydrate]) / λmax change: spectral analysis, Excitation 300-500, Emission 545; for carbohydrate can be detected and/or differentiated by the LCO: conclusion from change in signal magnitude and/or shift in λmax; for Gradient Parameters (gradient of regression line) / Linear relationship / Quality of Gradient: linear regression
Protocol: (§1) The excitation spectrum of the probe was analyzed for wavelengths 300-500 nm with emission read at 545 nm.
(§2) 3 μM of each probe was applied to serial two fold dilutions of the insoluble carbohydrate. Respective probes were excited at wavelengths unique to each probe (specified in figure), and emission was read at 545 nm.
(§3) Serial dilutions of carbohydrate suspensions were prepared in dH2O. Concentrations ranging from 10 to 0.039 mg/ml was used for β-1,3-glucan, cellulose and chitin, whereas 5 to 0.019 mg/ml was used for sodium alginate, glucose, amylose, glycogen, cellulobiose, heparin, chondroitin sulfate A. 3 μM of each LCO probe was added to 1 ml aliquots of each concentration of carbohydrate, after which 100 μl was dispensed in triplicates into 96 well plates. Excitation spectra were collected by exciting the sample from 300 to 500 nm and detecting emission at 545 nm. Detection of carbohydrate is concluded when there is a reproducible change in λmax and/or RFU intensity with reference to the negative control. Data from three concentrations, as well as the negative control are shown for each carbohydrate as specified in respective figure.
(§4) The excitation wavelength (emission detected at 545 nm) selected for each LCO is either (1) the λmax, or (2) the excitation wavelength which suffers the lowest background. A linear regression analysis is performed to determine the relationship between the carbohydrate concentration and RFU.

[2] = Protocol: 3 μM of each probe was applied to serial two fold dilutions of the insoluble carbohydrate of which the concentration shown here are 5 mg/ml (_.), 2.5 mg/ml (. . . ), 1.25 mg/ml (__) and 0 mg/ml (_). The excitation spectrum of the probe was analyzed for wavelengths 300-500 nm with emission read at 545 nm.
as §2, §3, §4

[3] = remark: listed apart in the source
Protocol: (§5) 3 μM of each probe was applied to serial two fold dilutions of the carbohydrate of which the concentration shown here are 5 mg/ml (_.), 2.5 mg/ml (. . . ) 1.25 mg/ml (__) and 0 mg/ml (_). The excitation spectrum of the probe was analyzed for wavelengths 300-500 nm with emission read at 545 nm.
3 μM of each probe was applied to serial two fold dilutions of the carbohydrate. Respective probes were excited at wavelengths unique to each probe (specified in figure), and emission was read at 545 nm. […] The mean increase in signal (_) with [Glucose] and the fitted regression line (__) is shown.
as §3, §4

[4] = for RFU change (Correlation analysis): probe-specific excitation λ, emission 545 nm
Protocol: as §5
(§6) 3 μM of each probe was applied to serial two fold dilutions of the carbohydrate. Respective probes were excited at wavelengths unique to each probe (specified in figure), and emission was read at 545 nm.
as §3, §4

[5] = for RFU change (Correlation analysis): probe-specific excitation λ, emission 545 nm; for carbohydrate can be detected and/or differentiated by the LCO: conclusion from change in signal magnitude and/or shift in λmax; for Gradient Parameters (gradient of regression line) / Linear relationship / Quality of Gradient: linear regression
Protocol: 3 μM of each probe was applied to serial two fold dilutions of the carbohydrate of which the concentration shown here are 5 mg/ml (_.), 2.5 mg/ml (. . . ), 1.25 mg/ml (__) and 0 mg/ml (_). The excitation spectrum of the probe was analyzed for wavelengths 300-500 nm with emission read at 545 nm.
as §6, §3, §4

[6] = remark: listed apart in the source
Protocol: as §1, §6, §3, §4

[7] = β-1,3-glucan concentration vs RFU
[8] = Sodium alginate 5-0.019 mg/ml, 3 μM probe, spectral analysis, Excitation 300-500, Emission 545
[9] = sodium alginate concentration vs RFU, linear regression
[10] = glucose concentration vs RFU, linear regression
[11] = Cellulobiose 5-0.019 mg/ml, 3 μM probe, spectral analysis, Excitation 300-500, Emission 545
[12] = amylose concentration vs RFU, linear regression
[13] = cellulobiose concentration vs RFU, linear regression
[14] = Glycogen 5-0.019 mg/ml, 3 μM probe, spectral analysis, Excitation 300-500, Emission 545
[15] = Chondroitin Sulfate A 5-0.019 mg/ml, 3 μM probe, spectral analysis, Excitation 300-500, Emission 545
[16] = Chondroitin Sulfate A concentration vs RFU, linear regression

Cl.Cl.c1csc(-c2cc(CCn3ccnc3)c(-c3ccc(-c4sc(-c5cccs5)cc4CCn4ccnc4)s3)s2)c1 [pHTIm, penta Hydrogen Thiophene Imidazole]
RFU change (Correlation analysis) ([1]; Cellulose 10-[…]): Increase
RFU change (Signal deviation with increasing [Carbohydrate]) ([1]; Cellulose 10-[…]): Increase
λmax change ([1]; Cellulose 10-[…]): Redshift
carbohydrate can be detected and/or differentiated by the LCO ([1]; Cellulose): can be detected and/or differentiated
RFU change (Correlation analysis) ([1]; Chitin 10-[…]): Decreases
RFU change (Signal deviation with increasing [Carbohydrate]) ([1]; Chitin 10-[…]): Decrease
λmax change ([1]; Chitin 10-[…]): Redshift
carbohydrate can be detected and/or differentiated by the LCO ([1]; Chitin): can be detected and/or differentiated
Gradient Parameters (gradient of regression line) ([1]; cellulose concentration vs RFU): 3063 ± 564.3
Linear relationship ([1]; cellulose concentration vs RFU): Significant
Quality of Gradient ([1]; cellulose concentration vs RFU): Positive
Gradient Parameters (gradient of regression line) ([1]; chitin concentration vs RFU): −383.6 ± 71.4
Linear relationship ([1]; chitin concentration vs RFU): Significant
Quality of Gradient ([1]; chitin concentration vs RFU): Negative
Sensitivity ([1]; to cellulose): Yes
Sensitivity ([1]; to chitin): Yes
Sensitivity ([1]; to β-1,3-glucan): No
RFU change (Correlation analysis) ([1]; β-1,3-glucan 10-[…]): Decrease
RFU change (Signal deviation with increasing [Carbohydrate]) ([1]; β-1,3-glucan 10-[…]): Decrease
λmax change ([1]; β-1,3-glucan 10-[…]): Redshift
Gradient Parameters (gradient of regression line) [1, 7]: −177.1 ± 89.6
Quality of Gradient [1, 7]: Horizontal
RFU change (Correlation analysis) ([2]; Sodium alginate 5-0.019 mg/ml, 3 μM probe, probe-specific excitation λ, emission 545 nm): Increases
RFU change (Signal deviation with increasing [Carbohydrate]) [2, 8]: Increases
λmax change [2, 8]: Redshift
carbohydrate can be detected and/or differentiated by the LCO ([2]; Sodium alginate, conclusion from change in signal magnitude and/or shift in λmax): can be detected and/or differentiated
Gradient Parameters (gradient of regression line) [2, 9]: 266 ± 29.2
Linear relationship [2, 9]: Significant
Quality of Gradient [2, 9]: Positive
Sensitivity ([2]; to sodium alginate): Yes
RFU change (Correlation analysis) ([3]; Glucose 5-0.019 mg/ml, 3 μM probe, probe-specific excitation λ, emission 545 nm): Unclear
RFU change (Signal deviation with increasing [Carbohydrate]) ([3]; Glucose 5-0.019 mg/ml, 3 μM probe, spectral analysis, Excitation 300-500, Emission 545): Unclear
Gradient Parameters (gradient of regression line) [3, 10]: 10.9 ± 25.5
Quality of Gradient [3, 10]: Horizontal
Sensitivity ([3]; to glucose): No
RFU change (Correlation analysis) ([4]; Amylose 5-0.019 mg/ml, 3 μM probe): Decreases
RFU change (Signal deviation with increasing [Carbohydrate]) ([4]; Amylose 5-0.019 mg/ml, 3 μM probe, spectral analysis, Excitation 300-500, Emission 545): Decreases
carbohydrate can be detected and/or differentiated by the LCO ([4]; Amylose, conclusion from change in signal magnitude and/or shift in λmax): can be detected and/or differentiated
RFU change (Correlation analysis) ([4]; Cellulobiose 5-0.019 mg/ml, 3 μM probe): Unclear
RFU change (Signal deviation with increasing [Carbohydrate]) [4, 11]: Increases
λmax change [4, 11]: No change
Gradient Parameters (gradient of regression line) [4, 12]: −655 ± 110
Linear relationship [4, 12]: Significant
Quality of Gradient [4, 12]: Negative
Gradient Parameters (gradient of regression line) [4, 13]: 75.1 ± 61.5
Quality of Gradient [4, 13]: Horizontal
Sensitivity ([4]; to amylose): Yes
Sensitivity ([4]; to cellulobiose): No
RFU change (Correlation analysis) ([5]; Glycogen 5-0.019 mg/ml, 3 μM probe): Increases
RFU change (Signal deviation with increasing [Carbohydrate]) [5, 14]: Increases
λmax change [5, 14]: Redshift
carbohydrate can be detected and/or differentiated by the LCO ([5]; Glycogen): can be detected and/or differentiated
RFU change (Correlation analysis) ([5]; Heparin 5-0.019 mg/ml, 3 μM probe): Increases
RFU change (Signal deviation with increasing [Carbohydrate]) ([5]; Heparin 5-0.019 mg/ml, 3 μM probe, spectral analysis, Excitation 300-500, Emission 545): Unclear
carbohydrate can be detected and/or differentiated by the LCO ([5]; Heparin): can be detected and/or differentiated
Gradient Parameters (gradient of regression line) ([5]; glycogen concentration vs RFU): 835.8 ± 26.6
Linear relationship ([5]; glycogen concentration vs RFU): Significant
Quality of Gradient ([5]; glycogen concentration vs RFU): Positive
Gradient Parameters (gradient of regression line) ([5]; heparin concentration vs RFU): 96.3 ± 36.8
Linear relationship ([5]; heparin concentration vs RFU): Significant
Quality of Gradient ([5]; heparin concentration vs RFU): Positive
Sensitivity ([5]; to glycogen): Yes
Sensitivity ([5]; to heparin): Yes
RFU change (Correlation analysis) ([6]; Chondroitin Sulfate A 5-0.019 mg/ml, 3 μM probe, probe-specific excitation λ, emission 545 nm): Increases
RFU change (Signal deviation with increasing [Carbohydrate]) [6, 15]: Increases
λmax change [6, 15]: Redshift
Gradient Parameters (gradient of regression line) [6, 16]: 1177 ± 203.6
Linear relationship [6, 16]: Significant
Quality of Gradient [6, 16]: Positive
carbohydrate can be detected and/or differentiated by the LCO ([6]; Chondroitin sulfate A, conclusion from change in signal magnitude and/or shift in λmax): can be detected and/or differentiated
Sensitivity ([6]; to Chondroitin Sulfate A): Yes

Source: patent US9958439B2, “Carbohydrate detection” (RICHTER LIFE SCIENCE DEVELOPMENT AB, priority 2012, dated 2018)
